This is an account of results in patent US20230096028A1, “BICYCLIC HETEROCYCLYL COMPOUNDS AND USES THEREOF” (Revolution Medicines, Inc., priority 2019, published 2023).

In assay [1] the test system is PC-9 cells (EGFR Ex19Del). The assay can be described thus: Potency Assay: pERK (SOS1 pERK IC50 Assay, AlphaLISA SureFire Ultra p-ERK1/2). The following applies: Homo sapiens; PC-9 cells (EGFR Ex19Del), 1 hour incubation, AlphaLISA p-ERK1/2; read-out: SOS1 pERK IC50. Format: cell-based. In a few lines:
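PC-9 (EGFR Ex19Del) cells plated overnight, then treated 1 h at 37° C. with 10-point 3-fold dilutions (top 10 μM final) in duplicate. Lysate pERK1/2 measured by AlphaLISA SureFire Ultra; IC50 from 4-parameter sigmoidal fit.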
A general note: Bead proximity is the source of the signal in Alpha formats.

The target of assay [2] is T1, SOS1 catalytic domain (residues 564-1049) (Homo sapiens, UniProt Q07889).
T1 sequence (Q07889 564-1049): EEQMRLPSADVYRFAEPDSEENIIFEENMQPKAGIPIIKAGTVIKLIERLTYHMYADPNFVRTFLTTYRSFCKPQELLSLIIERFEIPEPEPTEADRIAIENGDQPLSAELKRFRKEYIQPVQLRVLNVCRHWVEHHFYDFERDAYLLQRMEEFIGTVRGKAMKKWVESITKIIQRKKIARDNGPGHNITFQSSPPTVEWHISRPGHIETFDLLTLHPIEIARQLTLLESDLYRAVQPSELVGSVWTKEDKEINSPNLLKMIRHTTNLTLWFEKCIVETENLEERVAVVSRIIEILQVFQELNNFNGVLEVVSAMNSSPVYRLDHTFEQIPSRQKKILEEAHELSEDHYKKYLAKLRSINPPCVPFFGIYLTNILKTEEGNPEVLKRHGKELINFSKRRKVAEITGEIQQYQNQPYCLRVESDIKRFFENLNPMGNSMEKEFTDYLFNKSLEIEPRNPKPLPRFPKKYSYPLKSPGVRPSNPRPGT
As to the kind of experiment: Potency Assay: binding affinity to SOS1 using Surface Plasmon Resonance (SPR). Also noted: SOS1 catalytic domain (residues 564-1049) immobilized on a sensor chip. As to conditions: immobilized SOS1 catalytic domain (residues 564-1049), read-out: SOS1 SPR Equilibrium Kd. In outline:
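Avi-tagged SOS1 catalytic domain captured on streptavidin chip (~6000 RU) in 0.01 M HEPES, 0.15 M NaCl, 0.05% P20. Compound dilution series flowed at 50 μL/min for association, then buffer for dissociation, with double reference subtraction. Kd derived from end-of-association binding response plotted against concentration.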

The target in assay [3] is T1, SOS1 catalytic domain (residues 564-1049). As to the kind of experiment: Mode of Action Assay: inhibition of SOS1 nucleotide exchange activity (SOS1 TR-FRET IC50 Assay).
Description: The purpose of this assay was to characterize the inhibitory activity of compounds on SOS1 nucleotide exchange of KRAS. Data was reported as IC50 values based on the TR-FRET signal.
Note—the following protocol describes a procedure for monitoring the inhibition of SOS1 nucleotide exchange activity of wild-type KRAS in response to a compound of the invention.
The SOS1/compound mixture was incubated at room temperature with constant mixing on an orbital shaker for 20 minutes to allow the reaction to reach equilibrium. […] This mixture was prepared immediately before addition to the SOS1/compound mixture to prevent intrinsic nucleotide exchange. Then 5 μL of the pre-incubated SOS1/compound mixture and 7.5 μL of the KRAS mixture were added sequentially in a 384-well low volume black round bottom plate and incubated at room temperature with constant shaking for 30 minutes. Time-resolved fluorescence was measured on a PerkinElmer Envision plate reader.
Three replicates were performed for each compound. Data were normalized by the following: (Positive control−Sample signal)/(Positive control−negative control)*100. The data were fit using a four-parameter logistic fit.

With `COC1(C(=O)N2Cc3nc(Cl)nc(N[C@H](C)c4cccc(C(F)F)c4F)c3C2)CN(C)C1` [Example 324], the half-maximal inhibitory concentration (IC50) in assay [1] and in assay [3] was below 1 µM in each case. Besides, the Kd (in general, the constant that tells how readily two partners part at equilibrium) in assay [2] was below 0.4 µM.
On to `COC1(C(=O)N2Cc3nc(Cl)nc(N[C@H](C)c4cccc(C(F)F)c4F)c3C2)CCN(C2COC2)CC1` [Example 325], for which the half-inhibitory concentration (IC50) in assay [1] and in assay [3] was below 1 µM in each case. In addition, in assay [2], the Kd is below 0.4 µM.
Turning to `C[C@@H](Nc1nc(Cl)nc2c1CN(C(=O)C1(F)CCN(C)CC1)C2)c1cccc(C(F)F)c1F` [Example 326], the IC50 in assay [1] and in assay [3] was below 1 µM in each case. Also, the Kd in assay [2] is below 0.4 µM.
For the molecule `C[C@@H](Nc1nc(Cl)nc2c1CN(C(=O)C1(C)CCN(C3COC3)CC1)C2)c1cccc(C(F)F)c1F` [Example 327], the IC50 in assay [1] and in assay [3] was below 1 µM in each case. In addition, the Kd in assay [2] was below 0.4 µM.
Take `C[C@@H](Nc1nc(Cl)nc2c1CN(C(=O)C1(C#N)CNC1)C2)c1cccc(C(F)F)c1F` [Example 328]: the IC50 in assay [1] and in assay [3] was below 1 µM in each case. In addition, the Kd in assay [2] is below 0.4 µM.
For the molecule `C[C@@H](Nc1nc(Cl)nc2c1CN(C(=O)C1(F)CN(C3COC3)C1)C2)c1cccc(C(F)F)c1F` [Example 329], the IC50 in assay [1] and in assay [3] was below 1 µM each time. In addition, the Kd in assay [2] was below 0.4 µM.
With `COC1(C(=O)N2Cc3nc(Cl)nc(N[C@H](C)c4cccc(C(F)F)c4F)c3C2)CCOCC1` [Example 330], the IC50 in assay [1] and in assay [3] was below 1 µM throughout. Moreover, the Kd in assay [2] is below 0.4 µM.
As to `C[C@@H](Nc1nc(Cl)nc2c1CN(C(=O)C1(F)CCN(C3COC3)CC1)C2)c1cccc(C(F)F)c1F` [Example 331], the IC50 in assay [1] and in assay [3] was below 1 µM in each case. Also, the dissociation constant (Kd) in assay [2] is below 0.4 µM.
In the case of `CC(=O)NC1(C(=O)N2Cc3nc(Cl)nc(N[C@H](C)c4cccc(C(F)F)c4F)c3C2)CCCCC1` [Example 332], the IC50 (usually the midpoint of a concentration-inhibition curve) in assay [1] was above 1 µM; in assay [3] it was below 1 µM. The Kd in assay [2] is above 0.4 µM.
With `CNC1(C(=O)N2Cc3nc(Cl)nc(N[C@H](C)c4cccc(C(F)F)c4F)c3C2)CCOCC1` [Example 333], the IC50 in assay [1] and in assay [3] was below 1 µM throughout. Moreover, the Kd in assay [2] was below 0.4 µM.
For the molecule `CNC1(C(=O)N2Cc3nc(Cl)nc(N[C@H](C)c4cccc(C(F)F)c4F)c3C2)CCOC1` (stereo partly drawn) [Example 334], the IC50 in assay [1] and in assay [3] was below 1 µM each time. Moreover, the Kd in assay [2] is below 0.4 µM.
As to `C[C@@H](Nc1nc(Cl)nc2c1CN(C(=O)C1(C)CN(C3COC3)C1)C2)c1cccc(C(F)F)c1F` [Example 335], the IC50 in assay [1] and in assay [3] was below 1 µM in each case. Also, the Kd in assay [2] is below 0.4 µM.
Take `C[C@@H](Nc1nc(Cl)nc2c1CN(C(=O)C1CCN(C3COC3)CC1)C2)c1cccc(C(F)F)c1F` [Example 336]: the IC50 in assay [1] was above 1 µM; in assay [3] it was below 1 µM. Moreover, the Kd in assay [2] was below 0.4 µM.
The corresponding values for `C[C@@H](Nc1nc(Cl)nc2c1CN(C(=O)C1(C#N)CN(C)C1)C2)c1cccc(C(F)F)c1F` [Example 337] are above 1 µM, below 1 µM and below 0.4 µM.
The corresponding values for `CC(C)N1CC(C)(C(=O)N2Cc3nc(Cl)nc(N[C@H](C)c4cccc(C(F)F)c4F)c3C2)C1` [Example 338] are below 1 µM, below 1 µM and below 0.4 µM.
The corresponding values for `C[C@@H](Nc1nc(Cl)nc2c1CN(C(=O)C1CN(C3COC3)C1)C2)c1cccc(C(F)F)c1F` [Example 339] are below 1 µM, below 1 µM and below 0.4 µM.
For `COC1(C(=O)N2Cc3nc(Cl)nc(N[C@H](C)c4cccc(C(F)F)c4F)c3C2)CN(C2COC2)C1` [Example 340], the IC50 in assay [1] and in assay [3] was below 1 µM each time. In addition, in assay [2], the Kd is below 0.4 µM.
Turning to `C[C@@H](Nc1nc(Cl)nc2c1CN(C(=O)C1(C)CCN(C3COC3)C1)C2)c1cccc(C(F)F)c1F` (stereo partly drawn) [Example 341], the IC50 in assay [1] and in assay [3] was below 1 µM each time. Further, in assay [2], the Kd is below 0.4 µM.
Consider `C[C@@H](Nc1nc(Cl)nc2c1CN(C(=O)C1(C)CN(CCF)C1)C2)c1cccc(C(F)F)c1F` [Example 342], for which the IC50 in assay [1] and in assay [3] was below 1 µM in each case. Further, in assay [2], the Kd is below 0.4 µM.
As for `COC1(C(=O)N2Cc3nc(Cl)nc(N[C@H](C)c4cccc(C(F)F)c4F)c3C2)CCN(CCF)CC1` [Example 343], the IC50 in assay [1] and in assay [3] was below 1 µM in each case. In addition, the Kd in assay [2] is below 0.4 µM.
For `COC1(C(=O)N2Cc3nc(Cl)nc(N[C@H](C)c4cccc(C(F)F)c4F)c3C2)CCN(CC(F)(F)F)CC1` [Example 344], the IC50 in assay [1] and in assay [3] was below 1 µM throughout. The dissociation constant Kd in assay [2] was below 0.4 µM.
`C[C@@H](Nc1nc(CO)nc2c1CN(C(=O)N1CCOCC1)C2)c1cccc(C(F)F)c1F` [Example 348, (R)-(4-((1-(3-(difluoromethyl)-2-fluorophenyl)ethyl)amino)-2-(hydroxymethyl)-5,7-dihydro-6H-pyrrolo[3,4-d]pyrimidin-6-yl)(morpholino)methanone]: the IC50 in assay [1] is above 1 µM; in assay [3], below 1 µM. For the same molecule, the Kd in assay [2] was below 0.4 µM.
In the case of `COC1(C(=O)N2Cc3nc(CN)nc(N[C@H](C)c4cccc(C(F)(F)F)c4)c3C2)CCOCC1` [Example 350, (R)-(2-(aminomethyl)-4-((1-(3-(trifluoromethyl)phenyl)ethyl)amino)-5,7-dihydro-6H-pyrrolo[3,4-d]pyrimidin-6-yl)(4-methoxytetrahydro-2H-pyran-4-yl)methanone], the IC50 in assay [1] and in assay [3] was below 1 µM each time. Moreover, in assay [2], the Kd was below 0.4 µM.
As to `C[C@@H](Nc1nc(Cl)nc2c1CN(C(=O)N1CCNc3ncncc31)C2)c1cc(N)cc(C(F)(F)F)c1` [Example 354], the IC50 in assay [1] and in assay [3] was below 1 µM in each case. Moreover, in assay [2], the Kd is below 0.4 µM.
`C[C@@H](Nc1nc(Cl)nc2c1CN(C(=O)N1CCN(C)CC1)C2)c1cccc(C(F)(F)CO)c1` [Example 355]: the IC50 in assay [1] is above 1 µM; in assay [3], below 1 µM. Also, the Kd in assay [2] is below 0.4 µM.
Take `C[C@@H](Nc1nc(Cl)nc2c1CN(C(=O)N1CCNCC1)C2)c1cc(N)cc(C(F)(F)F)c1` [Example 356]: the IC50 in assay [1] and in assay [3] was below 1 µM in each case. Moreover, the Kd in assay [2] was below 0.4 µM.
Regarding `C[C@@H](Nc1nc(Cl)nc2c1CN(C(=O)N1CCN(C3COC3)CC1)C2)c1cccc(C(F)(F)CO)c1` [Example 357], the IC50 in assay [1] and in assay [3] was below 1 µM throughout. Besides, the Kd in assay [2] was below 0.4 µM.
Turning to `C[C@@H](Nc1nc(Cl)nc2c1CN(C(=O)N1CCNC(C(F)(F)F)C1)C2)c1cc(N)cc(C(F)(F)F)c1` (stereo partly drawn) [Example 359], the IC50 in assay [1] and in assay [3] was below 1 µM throughout. Further, the Kd in assay [2] is below 0.4 µM.
Take `C[C@@H](Nc1nc(Cl)nc2c1CN(C(=O)N1C[C@H]3C[C@@H]1CN3)C2)c1cc(N)cc(C(F)(F)F)c1` [Example 360]: the IC50 is above 1 µM in assay [1] and below 1 µM in assay [3]. Moreover, the Kd in assay [2] is below 0.4 µM.
The corresponding values for `C[C@@H](Nc1nc(Cl)nc2c1CN(C(=O)N1CCNc3ncncc31)C2)c1cccc(C(F)(F)F)c1` [Example 362] are below 1 µM, below 1 µM and below 0.4 µM.
For `C[C@@H](Nc1nc(Cl)nc2c1CN(C(=O)N1CCNC(C(F)(F)F)C1)C2)c1cccc(C(F)(F)F)c1` (stereo partly drawn) [Example 363], the IC50 in assay [1] and in assay [3] was below 1 µM throughout. In addition, in assay [2], the Kd was below 0.4 µM.
With `C[C@@H](Nc1nc(Cl)nc2c1CN(C(=O)N1CCNCC1)C2)c1cccc(C(F)(F)F)c1` [Example 364], the IC50 in assay [1] and in assay [3] was below 1 µM each time. The Kd in assay [2] was below 0.4 µM.
`C[C@@H](Nc1nc(Cl)nc2c1CN(C(=O)N1CCOc3ncccc31)C2)c1cc(N)cc(C(F)(F)F)c1` [Example 365]: the IC50 in assay [1] and in assay [3] was below 1 µM in each case. The dissociation constant Kd in assay [2] is below 0.4 µM.
Take `C[C@@H](Nc1nc(Cl)nc2c1CN(C(=O)N1CCOc3ncccc31)C2)c1cccc(C(F)(F)F)c1` [Example 366]: the IC50 in assay [1] and in assay [3] was below 1 µM in each case. The Kd in assay [2] was below 0.4 µM.
For the molecule `C[C@@H](Nc1nc(Cl)nc2c1CN(C(=O)N1CCNc3ncccc31)C2)c1cccc(C(F)(F)F)c1` [Example 370], the half-maximal inhibitory concentration (IC50) in assay [1] and in assay [3] was below 1 µM each time. In addition, in assay [2], the Kd was below 0.4 µM.
